Assay results reported in the supplement of paper PMC10307832.

Compound: C=CCn1c(=O)c2cnc(Nc3ccc(N4CCN(C)CC4)cc3)nc2n1-c1cccc(C(C)(C)O)n1 [Adavosertib] + CCNC(=O)c1noc(-c2cc(C(C)C)c(O)cc2O)c1-c1ccc(CN2CCOCC2)cc1 [Luminespib] (partner 0.01 µM)
Assay: relative viability (nuclei count vs DMSO), 5 days (fraction); higher = more cells survive
Method in brief: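 Five library-drug doses in √10 steps were combined with a fixed anchor-drug dose, or a single drug was given alone, by pin tool to lung cancer cell lines in 1536-well plates the day after seeding. Nuclei were stained and counted after 5 days. Relative viability is the nuclei count in treated wells over that in vehicle wells, taken as the median of duplicate plates.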

Row | Cell Line | relative viability (first compound 0.01 µM) | relative viability (first compound 0.03162 µM) | relative viability (first compound 0.1 µM) | relative viability (first compound 0.3162 µM)
1 | NCI-H1623 | 0.354 | 0.492 | 0.453 | 0.468
2 | HARA | 0.781 | 0.795 | 0.845 | 0.366
3 | NCI-H2126 | 0.831 | 0.832 | 0.897 | 0.93
4 | UMC-11 | 1.02 | 0.936 | 1.15 | 1
5 | PC-14 | 0.151 | 0.165 | 0.219 | 0.141
6 | NCI-H1792 | 0.595 | 0.446 | 0.456 | 0.569
7 | NCI-H1651 | 0.812 | 1.06 | 0.733 | 0.678
8 | HCC-15 | 0.309 | 0.325 | 0.334 | 0.359
9 | NCI-H2170 | 0.592 | 0.747 | 0.626 | 0.479
10 | SW 1573 | 0.177 | 0.226 | 0.192 | 0.198
11 | NCI-H661 | 0.898 | 0.924 | 1.06 | 0.557
12 | PC-3 [JPC-3] | 0.665 | 0.746 | 0.657 | 0.724
13 | NCI-H358 | 0.28 | 0.307 | 0.454 | 0.359
14 | COR-L23 | 0.614 | 0.61 | 0.667 | 0.232
15 | ABC-1 | 0.799 | 0.357 | 0.584 | 0.364
16 | RERF-LC-KJ | 1.32 | 1.33 | 1.29 | 1.16
17 | NCI-H1563 | 0.562 | 0.544 | 0.507 | 0.473
18 | A-427 | 0.877 | 1 | 1.05 | 0.634
19 | EKVX | 0.875 | 0.853 | 0.84 | 0.967
20 | LOU-NH91 | 0.34 | 0.375 | 0.357 | 0.32
21 | SW 900 |  | 0.195 | 0.169 | 0.156
22 | 201T | 1.1 | 1.04 | 1.05 | 1.09
23 | NCI-H1793 | 0.148 | 0.21 | 0.179 | 0.156
24 | LXF-289 | 0.598 | 0.651 | 0.654 | 0.783

Row | Cell Line | relative viability (first compound 0.01 µM) | relative viability (first compound 0.03162 µM) | relative viability (first compound 0.1 µM) | relative viability (first compound 0.3162 µM)
25 | ChaGo-K-1 | 0.502 | 0.683 | 0.489 | 0.719
26 | NCI-H23 | 0.217 | 0.252 | 0.233 | 0.21
27 | NCI-H1975 | 0.16 | 0.17 | 0.188 | 0.176
28 | NCI-H3122 | 0.0987 | 0.0823 | 0.12 | 0.0969
29 | NCI-H838 | 0.293 | 0.302 | 0.313 | 0.284
30 | H3255 | 0.801 | 1.03 | 0.937 | 0.95
31 | NCI-H2085 | 0.61 | 0.411 | 0.46 | 0.35
32 | NCI-H1355 | 0.671 | 0.644 | 0.617 | 0.631
33 | SK-MES-1 | 0.604 | 0.723 | 0.559 | 0.236
34 | NCI-H1755 | 0.417 | 0.616 | 0.342 | 0.531
35 | NCI-H650 | 0.76 | 0.842 | 0.841 | 0.673
36 | COR-L 105 | 1.03 | 0.698 | 0.962 | 0.774
37 | BEN | 0.195 | 0.501 | 0.413 | 0.389
38 | NCI-H322M | 0.764 | 0.789 | 0.57 | 0.398
39 | NCI-H596 | 0.911 | 1.2 | 0.958 | 0.76
40 | EPLC-272H | 0.225 | 0.549 | 0.196 | 0.182
41 | NCI-H647 | 0.128 | 0.179 | 0.151 | 0.136
42 | NCI-H2009 | 1.01 | 1.07 | 1.06 | 0.888
43 | NCI-H2228 | 0.186 | 0.159 | 0.132 | 0.134
44 | NCI-H1395 | 0.836 | 0.741 | 0.734 | 0.424
45 | LK-2 | 0.163 | 0.216 | 0.182 | 0.183
46 | NCI-H520 | 0.227 | 0.214 | 0.243 | 0.213
47 | CAL-12T | 0.312 | 0.102 | 0.601 | 0.23
48 | NCI-H460 | 0.0322 | 0.0312 | 0.0317 | 0.0275

Row | Cell Line | relative viability (first compound 0.01 µM) | relative viability (first compound 0.03162 µM) | relative viability (first compound 0.1 µM) | relative viability (first compound 0.3162 µM)
49 | NCI-H1944 | 0.696 | 0.715 | 0.655 | 0.575
50 | NCI-H1437 | 1.07 | 1.2 | 1.17 | 1.07
51 | NCI-H2087 | 0.208 | 0.187 | 0.194 | 0.195
52 | LU99A | 0.314 | 0.188 | 0.221 | 0.198
53 | NCI-H1993 | 0.912 | 0.904 | 0.836 | 1.06
54 | NCI-H2342 | 0.636 | 0.676 | 0.788 | 0.784
55 | NCI-H2347 | 0.467 | 0.382 | 0.723 | 0.292
56 | NCI-H1734 | 0.234 | 0.241 | 0.184 | 0.191
57 | HCC-44 | 0.982 | 1.01 | 0.968 | 1.3
58 | LCLC-97TM1 | 0.78 | 0.54 | 0.982 | 0.804
59 | HOP-62 | 0.997 | 0.906 | 0.909 | 0.945
60 | NCI-H2405 | 0.556 | 0.805 | 0.773 | 0.69
61 | SK-LU-1 | 0.19 | 0.201 | 0.249 | 0.169
62 | NCI-H1915 | 0.912 | 0.729 | 0.752 | 0.617
63 | NCI-H1666 | 0.977 | 0.946 | 0.994 | 1.02
64 | NCI-H1650 | 0.2 | 0.207 | 0.213 | 0.145
65 | NCI-H441 | 0.291 | 0.346 | 0.418 | 0.276
66 | LC-2-ad | 1.01 | 1.11 | 1.26 | 1.08
67 | LCLC-103H | 0.865 | 1.05 | 0.892 | 0.837
68 | NCI-H727 | 0.299 | 0.363 | 0.301 | 0.24
69 | HCC-827 | 0.598 | 0.774 | 0.42 | 0.667
70 | NCI-H2023 | 0.8 | 0.771 | 0.441 | 0.31
71 | NCI-H522 |  | 1.04 | 1.24 | 1.2
